Experimental data: publication PMC3606385 (PLoS ONE, 2013)
Where two headings read alike, the source gives them in different places.

How the values were obtained:
[1] = target: T1, Rat 11β-HSD1 (Rattus norvegicus, UniProt P16232); assay: 11β-HSD1 assay in adult rat testis microsomes; assay type: biochemical; settings: microsomes, screening
T1 construct: endogenous in cells; host or cells: primary adult Sprague-Dawley rat Leydig cells
Experimental: (§1) Rats were euthanized by CO2, and livers, testes and kidneys were collected. Rat liver, testis and kidney microsomes were prepared as described previously. In brief, rat liver and kidney were homogenized in […] PBS buffer containing 0.25 M sucrose, and nuclei and large cell debris were removed by centrifugation at 1500× g for 10 min. The post-nuclear supernatants were centrifuged twice at 105,000×g, the resultant microsomal pellets were resuspended. Protein contents were measured by Bio-Rad Dye Reagent Concentrate (Cat.#500-0006). Microsomes were used for measurement of 11β-HSD1 and 11β-HSD2 activities.
(§2) The rat testis and liver or human liver microsomes were used for 11β-HSD1 assay. 11β-HSD1 activity was performed in the microsome according to a previously described method. […] 2 µg microsomes were added to each tube to initiate the reaction and the reaction mixture was incubated for up to 2 hrs, during which the reaction is within the linear range. The rest procedure was similar to 11β-HSD1 assay in intact cells.
(§3) The IC50 was determined by adding different concentrations of each compound in the 11β-HSD1 or 11β-HSD2 reaction as described. The mode of inhibition was assayed by adding various concentrations of steroid substrates in the presence of an inhibitor as described.

[2] = target: T2, Human 11β-HSD1 (Homo sapiens, UniProt P28845); assay: 11β-HSD1 assay in microsomes from CHOP cells transfected with human HSD11B1; assay type: biochemical; settings: microsomes, screening
T2 construct: expressed in transfected cells; host or cells: CHOP cells (transient, FuGENE)
Experimental: (§4) An expression plasmid was constructed to express human 11β-HSD1 (HSD11B1) cDNA in pcDNA I expression vector from its original human HSD11B1 vector (pBluescriptSK+).[15]. The Escherichia coli transformants carrying an insert were selected by colony hybridization, and a clone with the insert in the correct orientation relative to the vector T7 promoter was identified by restriction mapping. All transfections were carried out on 80% confluent cultures in 12-well plates. Aliquots of 1 µg HSD11B1 pcDNA I were transfected into mammalian CHOP cells with the FuGENE Transfection Reagent (Roche) according to manufacturer's protocol. Cells were allowed to grow for 24 hours in media containing 10% fetal bovine serum. Then media were removed and cells were harvested for 11β-HSD1 activity assay.
as §2, §3

[3] = target: T1, Rat 11β-HSD1; assay: 11β-HSD1 assay in intact rat Leydig cells; assay type: cell-based; settings: for Rat 11β-HSD1 Potency to Curcumin (fold) / IC50: intact rat Leydig cells; for Rat 11β-HSD1 Potency to Curcumin (fold): relative to curcumin; for IC50: read-out: Rat 11β-HSD1 IC50 (nM) in Leydig cells
Experimental: Rat Leydig cells contain the highest 11β-HSD1 activity in all cell types of rat tissues, and were used for rat 11β-HSD1 enzyme sources. Purified rat Leydig cells were obtained from 90-day-old Sprague-Dawley rats by collagenase digestion of the testes followed by Percoll density centrifugation of the cell suspension, according to the previously described method. […] The purity of cell fractions was evaluated by histochemical staining for 3β-hydroxysteroid dehydrogenase activity with […] etiocholanolone as the steroid substrate.
(§5) 11β-HSD1 reductase activity was performed in intact cells using endogenous cofactor NADPH as described previously. […] 25×10^3 cells were added to each tube to initiate the reaction and the reaction mixture was incubated for up to 2 hrs, during which the reaction is within the linear range. At the end of reaction, the reaction was stopped by adding 2 ml ice-cold ether. The steroids were extracted, and the organic layer was dried under nitrogen. The steroids were separated chromatographically on thin layer plates in chloroform and methanol (90∶10, v/v), and the radioactivity was measured using a scanning radiometer (System AR2000, Bioscan Inc., Washington, DC) as described previously. The percentage conversion of 11DHC to CORT or cortisone to cortisol was calculated by dividing the radioactive counts identified as 11-OH-steroids by the total counts.
as §3

[4] = target: T3, Human 11β-HSD2 (Homo sapiens, UniProt P80365); assay: 11β-HSD2 assay in human kidney microsomes; assay type: biochemical; settings: for IC50: human kidney microsomes, read-out: IC50 (nM) Human 11β-HSD2
T3 construct: tissue Gentest (Woburn, MA); host or cells: human kidney microsomes
T3 sequence (P80365 1-405): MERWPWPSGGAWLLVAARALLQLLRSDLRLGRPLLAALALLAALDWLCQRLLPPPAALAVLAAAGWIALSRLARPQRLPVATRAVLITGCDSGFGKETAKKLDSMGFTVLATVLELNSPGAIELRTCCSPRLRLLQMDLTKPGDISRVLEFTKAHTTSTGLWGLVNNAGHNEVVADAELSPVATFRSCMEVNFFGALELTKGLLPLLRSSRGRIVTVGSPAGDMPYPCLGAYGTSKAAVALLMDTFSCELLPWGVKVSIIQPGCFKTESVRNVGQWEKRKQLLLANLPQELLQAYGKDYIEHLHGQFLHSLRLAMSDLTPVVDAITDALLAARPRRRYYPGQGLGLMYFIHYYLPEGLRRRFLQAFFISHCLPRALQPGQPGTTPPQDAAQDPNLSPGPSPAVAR
Experimental: The rat and human kidney microsomes were used for 11β-HSD2 sources. 11β-HSD2 activity was performed in the microsome according to a previously described method. In brief, the assay tubes contained 25 nM substrate CORT (for rat) or cortisol (for human), spiked with 30,000 cpm their respective ^3H-11β-hydroxyl steroid, 0.2 mM NAD+ and 0.1 mM DTT in the PBS buffer. 8 (rat) or 20 (human) µg kidney microsomes were added to each tube to initiate the reaction and the reaction mixture was incubated for up to 3 hrs, during which the reaction is within the linear range. The rest procedure was similar to 11β-HSD1 assay. The percentage conversion of CORT to 11DHC or cortisol to cortisone was calculated by dividing the radioactive counts identified as 11keto-steroids by the total counts.
as §3

[5] = target: T4, Rat 11β-HSD2 (Rattus norvegicus, UniProt P50233); assay: 11β-HSD2 assay in rat kidney microsomes; assay type: biochemical; settings: for IC50: rat kidney microsomes
T4 construct: from tissue; host or cells: rat kidney microsomes
T4 sequence (P50233 1-400): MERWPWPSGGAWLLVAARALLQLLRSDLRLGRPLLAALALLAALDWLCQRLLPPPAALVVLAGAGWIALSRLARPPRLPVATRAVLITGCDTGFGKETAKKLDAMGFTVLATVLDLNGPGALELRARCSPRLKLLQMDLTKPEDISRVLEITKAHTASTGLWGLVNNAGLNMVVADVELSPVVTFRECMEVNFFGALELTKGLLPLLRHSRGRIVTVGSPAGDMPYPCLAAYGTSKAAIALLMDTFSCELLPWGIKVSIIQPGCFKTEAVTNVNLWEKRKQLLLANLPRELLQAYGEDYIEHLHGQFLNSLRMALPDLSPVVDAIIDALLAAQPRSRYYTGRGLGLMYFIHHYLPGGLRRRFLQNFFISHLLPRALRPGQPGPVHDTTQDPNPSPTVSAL
Experimental: as §1
The rat and human kidney microsomes were used for 11β-HSD2 sources. 11β-HSD2 activity was performed in the microsome according to a previously described method. […] 8 (rat) or 20 (human) µg kidney microsomes were added to each tube to initiate the reaction and the reaction mixture was incubated for up to 3 hrs, during which the reaction is within the linear range. The rest procedure was similar to 11β-HSD1 assay. The percentage conversion of CORT to 11DHC or cortisol to cortisone was calculated by dividing the radioactive counts identified as 11keto-steroids by the total counts.
as §3

[6] = target: T2, Human 11β-HSD1; assay: 11β-HSD1 assay in intact CHOP cells transfected with human HSD11B1; assay type: cell-based; settings: for Human 11β-HSD1 Potency to Curcumin (fold): CHOP cells transfected with human HSD11B1, relative to curcumin
Experimental: as §4, §5, §3

[7] = CHOP cells transfected with human HSD11B1, read-out: Human 11β-HSD1 IC50 (nM) in CHOP cells

T2 sequence (P28845 whole entry): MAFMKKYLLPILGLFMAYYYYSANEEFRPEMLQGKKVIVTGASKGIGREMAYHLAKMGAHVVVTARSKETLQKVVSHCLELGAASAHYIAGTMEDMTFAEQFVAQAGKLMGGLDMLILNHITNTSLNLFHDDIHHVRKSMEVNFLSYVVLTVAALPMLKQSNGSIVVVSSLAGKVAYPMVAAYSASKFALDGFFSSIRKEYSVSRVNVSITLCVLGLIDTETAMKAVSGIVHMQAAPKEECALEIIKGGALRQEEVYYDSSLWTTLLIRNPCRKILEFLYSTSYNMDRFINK
T1 sequence (P16232 whole entry): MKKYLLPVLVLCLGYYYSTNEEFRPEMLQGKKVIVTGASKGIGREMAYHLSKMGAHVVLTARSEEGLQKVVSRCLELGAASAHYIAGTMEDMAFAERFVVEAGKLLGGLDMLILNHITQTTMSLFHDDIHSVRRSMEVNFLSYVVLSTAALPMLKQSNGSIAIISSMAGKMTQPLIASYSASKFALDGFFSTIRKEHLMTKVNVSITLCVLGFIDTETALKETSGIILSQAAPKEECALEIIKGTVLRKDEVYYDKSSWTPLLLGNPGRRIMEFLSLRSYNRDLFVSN

| SMILES | Inhibitory effect against rat 11β-HSD1 in nutraceutical screen [1] | Inhibitory effect against human 11β-HSD1 in nutraceutical screen [2] | Rat 11β-HSD1 Potency to Curcumin (fold) [3] [fold] | IC50 [3] [nM] | IC50 [4] [nM] | IC50 [5] [nM] | Human 11β-HSD1 Potency to Curcumin (fold) [6] [fold] | IC50 [6, 7] [nM] | Inhibition of human 11β-HSD2 at 100 µM [4] | Inhibition of rat 11β-HSD2 at 100 µM [5] | Inhibition of rat 11β-HSD1 at 100 μM ([3]; 100 μM, intact cells) | Inhibition of human 11β-HSD1 at 100 μM ([6]; 100 μM, intact cells) | IC50 ([6]; intact CHOP cells transfected with human HSD11B1, read-out: IC50 human 11β-HSD1 in intact cells) [nM] |
| --- | --- | --- | --- | --- | --- | --- | --- | --- | --- | --- | --- | --- | --- |
| COc1ccc2cc3[n+](cc2c1OC)CCc1cc2c(cc1-3)OCO2 [berberine] | only curcumin (compound 1) showed inhibitory effects | only curcumin (compound 1) showed inhibitory effects |  |  |  |  |  |  |  |  |  |  |  |
| O=C(/C=C/c1ccc(Br)o1)/C=C/c1ccc(Br)o1 [compound 2] |  |  | 1.38 | 4210 | > 100000 | > 100000 | 2.31 | 995 |  |  |  |  |  |
| Cc1ccsc1/C=C/C(=O)/C=C/c1sccc1C [compound 4, (1E,4E)-1,5-bis(3-methylthiophen-2-yl) penta-1,4-dien-3-one] |  |  | 50.75 | 114 | 19600 | > 100000 | 12.54 | 183 |  |  |  |  |  |
| O=C1/C(=C/c2ccc(Br)o2)CC/C1=C\c1ccc(Br)o1 [compound 7] |  |  | 1.85 | 3130 | > 100000 | > 100000 | 1.73 | 1330 |  |  |  |  |  |
| Cc1ccc(/C=C2\CC/C(=C\c3ccc(C)s3)C2=O)s1 [compound 8] |  |  | 2.17 | 2670 | > 100000 | > 100000 | 20.68 | 111 | did not inhibit | did not inhibit |  |  |  |
| Cc1ccsc1/C=C1\CC/C(=C\c2sccc2C)C1=O [compound 9, (1E,4E)-1,5-bis(3-methylthiophen-2-yl) cyclopentanone] |  |  |  | > 100000 | > 100000 | > 100000 |  | > 100000 |  |  | did not inhibit | did not inhibit |  |
| Cn1cccc1/C=C1\CC/C(=C\c2cccn2C)C1=O [compound 10] |  |  |  | > 100000 | > 100000 | > 100000 |  | > 100000 |  |  |  |  |  |
| O=C1/C(=C/c2cccs2)CC/C1=C\c1cccs1 [compound 11] |  |  | 5.51 | 1050 | > 100000 | > 100000 | 10.20 | 225 | did not inhibit | did not inhibit |  |  |  |
| O=C1/C(=C/c2ccc(Br)o2)CCC/C1=C\c1ccc(Br)o1 [compound 12] |  |  | 0.54 | 10800 | > 100000 | > 100000 | 0.75 | 3050 |  |  |  |  |  |
| Cc1ccc(/C=C2\CCC/C(=C\c3ccc(C)s3)C2=O)s1 [compound 13] |  |  | 0.48 | 11900 | > 100000 | > 100000 | 0.50 | 4590 |  |  |  |  |  |
| Cn1cccc1/C=C1\CCC/C(=C\c2cccn2C)C1=O [compound 15] |  |  | 0.49 | 11800 | > 100000 | > 100000 | 1.09 | 2100 |  |  |  |  |  |
| O=C1/C(=C/c2cccs2)CCC/C1=C\c1cccs1 [compound 16, (1E,4E)-1,5-bis(thiophen-2-yl) cyclohexanone] |  |  | 2.27 | 2550 | > 100000 | > 100000 | 0.64 | 3570 |  |  |  |  | 3570 |
| COc1ccc(-c2oc3c(CC=C(C)C)c(O[C@@H]4O[C@H](CO)[C@@H](O)[C@H](O)[C@H]4O)cc(O)c3c(=O)c2O[C@@H]2O[C@@H](C)[C@H](O)[C@@H](O)[C@H]2O)cc1 [icariin] | only curcumin (compound 1) showed inhibitory effects | only curcumin (compound 1) showed inhibitory effects |  |  |  |  |  |  |  |  |  |  |  |
